Assay type in all cases: in vivo
For data set [1], the system named is Avena fatua. Description: Test Example 5: herbicidal effect by foliage application, plastic box (symbol I). The note with it: 320 g/ha, 3 weeks after application. The procedure, abridged: (§1)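 Greenhouse foliar test: seedlings at 14 days, grown 25° C. to 30° C. in sterilized diluvial soil; compound applied as an aqueous dilution of an emulsion; response read 3 weeks after spraying.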

The subject of data set [2] is Lolium multiflorum Lam. Description: Test Example 5: herbicidal effect by foliage application, plastic box (symbol K). The conditions noted are these: 320 g/ha, 3 weeks after application. The procedure, abridged: as §1
Data set [3] deals with Echinochloa crus-galli var. crus-galli. As to the kind of experiment: Test Example 3: herbicidal effect by foliage application, Wagner pot (symbol H). The note with it: application herbicide amount 320 g/ha. The procedure, abridged: (§2)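 Seeds sown in alluvial soil kept under 0.1–0.5 cm water, greenhouse 25–30 °C; 14 d growth. Leaves treated by small sprayer with water-diluted emulsion at a predetermined rate. Effect graded by set scale, 3 weeks.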

For data set [4], the system named is wheat. As to the kind of experiment: Test Example 5: effect on crop by foliage application, plastic box (symbol e). The note with it: 320 g/ha, 3 weeks after application. The procedure, abridged:
(§3)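 A greenhouse held between 25° C. and 30° C. was used to grow plants sown spot-wise, beneath ~1.5 cm of soil, in boxes of sterilized diluvial soil.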

For data set [5], the system named is rice. Description: Test Example 4: effect on crop by soil treatment (symbol b). The conditions noted are these: application herbicide amount 320 g/ha. The procedure, abridged: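 Sterilized diluvial soil, spot sowing, ~1.5 cm soil cover; greenhouse 25–30° C.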
Data set [6] deals with Echinochloa crus-galli var. crus-galli. As to the kind of experiment: Test Example 4: herbicidal effect by soil treatment (symbol H). The conditions noted are these: application herbicide amount 320 g/ha. The procedure, abridged:
(§4)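 Seeds were sown in sterilized diluvial soil, covered with about 1.5 cm of soil, and the soil surface was sprayed with a water-diluted emulsion of the compound at a predetermined rate. Plants grew in a greenhouse at 25° C. to 30° C.; effects were scored visually 3 weeks after application.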

Data set [7] relates to Setaria viridis. As to the kind of experiment: Test Example 5: herbicidal effect by foliage application, plastic box (symbol G). The conditions noted are these: 320 g/ha, 3 weeks after application. The procedure, abridged: as §1
Data set [8] relates to Alopecurus myosuroides. As to the kind of experiment: Test Example 5: herbicidal effect by foliage application, plastic box (symbol J). The conditions noted are these: 320 g/ha, 3 weeks after application. The procedure, abridged: as §1
The test system of data set [9] is Apera spica-venti. As to the kind of experiment: Test Example 4: herbicidal effect by soil treatment (symbol L). The conditions noted are these: application herbicide amount 320 g/ha. The procedure, abridged:
as §4

Data set [10] relates to corn. Description: Test Example 4: effect on crop by soil treatment (symbol c). The conditions noted are these: application herbicide amount 320 g/ha. The procedure, abridged: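 Soil-treatment setup: crop and weed seeds were spot-sown into sterilized diluvial soil, then buried beneath approximately 1.5 cm of it, and the boxes were housed in a 25–30° C. greenhouse.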
The test system of data set [11] is rice plant. Description: Test Example 5: effect on crop by foliage application, plastic box (symbol b). The conditions noted are these: 320 g/ha, 3 weeks after application. The procedure, abridged:
as §3

Data set [12] concerns Lolium multiflorum Lam. As to the kind of experiment: Test Example 4: herbicidal effect by soil treatment (symbol K). The conditions noted are these: application herbicide amount 320 g/ha. The procedure, abridged:
as §4

Data set [13] has as its system Veronica persica. As to the kind of experiment: Test Example 5: herbicidal effect by foliage application, plastic box (symbol R). The conditions noted are these: 320 g/ha, 3 weeks after application. The procedure, abridged: as §1
Data set [14] has as its system Scirpus juncoides. Description: Test Example 2: herbicidal activity, application during weed generation in submerged conditions (symbol B). The note with it: Table 23; application herbicide amount 320 g/ha; grade 0-5 by criteria of Test Example 1. The procedure, abridged:
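Each pot contained alluvial soil under 4 cm of water with seeds of all three weeds sown together. Following growth at 25° C. to 30° C. to the one- to two-leaf stage, the floodwater received diluted emulsion at a predetermined amount; visual assessment followed at 3 weeks.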

Data set [15] has as its system Cyperus difformis. Description: Test Example 3: herbicidal effect by foliage application, Wagner pot (symbol E). The conditions noted are these: application herbicide amount 320 g/ha. The procedure, abridged: as §2
Data set [16] relates to Stellaria media. Description: Test Example 5: herbicidal effect by foliage application, plastic box (symbol P). The note with it: 320 g/ha, 3 weeks after application. The procedure, abridged: as §1

The results in this text go back to patent publication US11000033B2, “Ketone or oxime compound, and herbicide” (NISSAN CHEMICAL CORPORATION, priority 2014, dated 2021).

Regarding `CCCC(=O)C(C(=O)OC)C1CC(O)=C(c2c(C)cc(C)cc2C)C1=O` (stereo not shown) [2-020], the “I: Avena fatua, herbicidal effect grade” value in [1] is given as 0 (Herbicidal ratio of 5% or lower (almost no effect)). The “K: Lolium multiflorum Lam., herbicidal effect grade” value in data set [2] was 5 (Herbicidal ratio of 90% or more (almost completely withered)); in data set [12], 4 (Herbicidal ratio of 70% or higher and lower than 90%). In addition, the “herbicidal effect on H (Echinochloa crus-galli var. crus-galli), grade 0-5” value (“herbicidal effect on H” below) in [3] was 2 (Herbicidal ratio of 20% or higher and lower than 40%). Further, the “e: wheat, effect on crop grade” value in data set [4] was 0 (Herbicidal ratio of 5% or lower (almost no effect)). Besides, the “b: directly sowed rice plant, effect on crop grade” value (“b: directly sowed rice plant” for short) in [5] was 5 (Herbicidal ratio of 90% or more (almost completely withered)); in data set [11], 4 (Herbicidal ratio of 70% or higher and lower than 90%). Also, the “H: Echinochloa crus-galli var. crus-galli, herbicidal effect grade” value in [6] was 4 (Herbicidal ratio of 70% or higher and lower than 90%). Further, the “G: Setaria viridis, herbicidal effect grade” value (from here on “G: Setaria viridis”) in [7] is recorded as 5 (Herbicidal ratio of 90% or more (almost completely withered)). Moreover, the “J: Alopecurus myosuroides, herbicidal effect grade” value (shortened to “J: Alopecurus myosuroides”) in [8] was 4 (Herbicidal ratio of 70% or higher and lower than 90%). Besides, the “L: Apera spica-venti, herbicidal effect grade” value (shortened to “L: Apera spica-venti”) in data set [9] is 0 (Herbicidal ratio of 5% or lower (almost no effect)). The “c: corn, effect on crop grade” value in data set [10] is 3 (Herbicidal ratio of 40% or higher and lower than 70%). Further, the “R: Veronica persica, herbicidal effect grade” value (from here on “R: Veronica persica”) in [13] is 0 (Herbicidal ratio of 5% or lower (almost no effect)). Besides, in [14], the “Herbicidal effect grade, B: Scirpus juncoides” value (“Herbicidal effect grade, B” below) was 0 (Herbicidal ratio of 5% or lower (almost no effect)). In addition, in data set [15], the “herbicidal effect on E, grade 0-5” value is recorded as 0 (Herbicidal ratio of 5% or lower (almost no effect)). The “P: Stellaria media, herbicidal effect grade” value (“P: Stellaria media” below) in [16] was 0 (Herbicidal ratio of 5% or lower (almost no effect)).

Regarding `CON=C(C)C1CC(O)=C(c2c(C)cc(C)cc2C)C1=O` (mixture of isomers) [3-002], the “I: Avena fatua, herbicidal effect grade” value in data set [1] is given as 0 (Herbicidal ratio of 5% or lower (almost no effect)). In addition, the “K: Lolium multiflorum Lam., herbicidal effect grade” value in data set [2] was 1 (Herbicidal ratio of 5% or higher and lower than 20%); in [12] it was 0 (Herbicidal ratio of 5% or lower (almost no effect)). In addition, the “herbicidal effect on H” value in data set [3] is given as 0 (Herbicidal ratio of 5% or lower (almost no effect)). In addition, the “e: wheat, effect on crop grade” value in data set [4] is on record as 0 (Herbicidal ratio of 5% or lower (almost no effect)). Besides, the “b: directly sowed rice plant” value in data set [5] was 0 (Herbicidal ratio of 5% or lower (almost no effect)); in data set [11], 3 (Herbicidal ratio of 40% or higher and lower than 70%). For the same compound, the “H: Echinochloa crus-galli var. crus-galli, herbicidal effect grade” value in data set [6] is on record as 0 (Herbicidal ratio of 5% or lower (almost no effect)). Moreover, the “G: Setaria viridis” value in data set [7] is 2 (Herbicidal ratio of 20% or higher and lower than 40%). Moreover, the “J: Alopecurus myosuroides” value in data set [8] is given as 0 (Herbicidal ratio of 5% or lower (almost no effect)). Also, the “L: Apera spica-venti” value in data set [9] was 0 (Herbicidal ratio of 5% or lower (almost no effect)). Besides, the “c: corn, effect on crop grade” value in [10] is listed as 0 (Herbicidal ratio of 5% or lower (almost no effect)). In data set [13], the “R: Veronica persica” value was 0 (Herbicidal ratio of 5% or lower (almost no effect)). The “Herbicidal effect grade, B” value in data set [14] is reported as 0 (Herbicidal ratio of 5% or lower (almost no effect)). Moreover, the “herbicidal effect on E, grade 0-5” value in data set [15] was 0 (Herbicidal ratio of 5% or lower (almost no effect)). Moreover, the “P: Stellaria media” value in [16] is listed as 0 (Herbicidal ratio of 5% or lower (almost no effect)).

As for `Cc1cc(C)c(C2=C(O)CC(CC(=O)C(C)(C)C)C2=O)c(C)c1` (stereo not shown) [2-022], the “I: Avena fatua, herbicidal effect grade” value in data set [1] is on record as 0 (Herbicidal ratio of 5% or lower (almost no effect)). Also, the “K: Lolium multiflorum Lam., herbicidal effect grade” value was 5 (Herbicidal ratio of 90% or more (almost completely withered)) in data set [2]; 4 (Herbicidal ratio of 70% or higher and lower than 90%) in data set [12]. Also, the “herbicidal effect on H” value in data set [3] is 1 (Herbicidal ratio of 5% or higher and lower than 20%). Also, the “e: wheat, effect on crop grade” value in data set [4] is given as 0 (Herbicidal ratio of 5% or lower (almost no effect)). The “b: directly sowed rice plant” value in data set [5] is 4 (Herbicidal ratio of 70% or higher and lower than 90%); in [11], 5 (Herbicidal ratio of 90% or more (almost completely withered)). Moreover, in [6], the “H: Echinochloa crus-galli var. crus-galli, herbicidal effect grade” value is 0 (Herbicidal ratio of 5% or lower (almost no effect)). Further, the “G: Setaria viridis” value in data set [7] is reported as 0 (Herbicidal ratio of 5% or lower (almost no effect)). Further, in data set [8], the “J: Alopecurus myosuroides” value is 3 (Herbicidal ratio of 40% or higher and lower than 70%). For the same compound, the “L: Apera spica-venti” value in [9] is given as 0 (Herbicidal ratio of 5% or lower (almost no effect)). Further, the “c: corn, effect on crop grade” value in data set [10] is reported as 0 (Herbicidal ratio of 5% or lower (almost no effect)). For the same compound, the “R: Veronica persica” value in data set [13] is 0 (Herbicidal ratio of 5% or lower (almost no effect)). In [14], the “Herbicidal effect grade, B” value is listed as 0 (Herbicidal ratio of 5% or lower (almost no effect)). Moreover, the “herbicidal effect on E, grade 0-5” value in data set [15] was 2 (Herbicidal ratio of 20% or higher and lower than 40%). Besides, the “P: Stellaria media” value in data set [16] is 0 (Herbicidal ratio of 5% or lower (almost no effect)).

For `COC(=O)C(C(=O)C1CC1)C1CC(O)=C(c2c(C)cc(C)cc2C)C1=O` (stereo not shown) [2-014], in data set [1], the “I: Avena fatua, herbicidal effect grade” value was 4 (Herbicidal ratio of 70% or higher and lower than 90%). In addition, the “K: Lolium multiflorum Lam., herbicidal effect grade” value is 5 (Herbicidal ratio of 90% or more (almost completely withered)) in data set [2]; 4 (Herbicidal ratio of 70% or higher and lower than 90%) in data set [12]. Also, the “herbicidal effect on H” value in [3] is listed as 5 (Herbicidal ratio of 90% or more (almost completely withered)). For the same compound, in [4], the “e: wheat, effect on crop grade” value was 0 (Herbicidal ratio of 5% or lower (almost no effect)). In addition, the “b: directly sowed rice plant” value in data set [5] and in data set [11] was 5 (Herbicidal ratio of 90% or more (almost completely withered)) each time. In data set [6], the “H: Echinochloa crus-galli var. crus-galli, herbicidal effect grade” value is recorded as 5 (Herbicidal ratio of 90% or more (almost completely withered)). In addition, in data set [7], the “G: Setaria viridis” value is 5 (Herbicidal ratio of 90% or more (almost completely withered)). In [8], the “J: Alopecurus myosuroides” value is 5 (Herbicidal ratio of 90% or more (almost completely withered)). In data set [9], the “L: Apera spica-venti” value was 2 (Herbicidal ratio of 20% or higher and lower than 40%). For the same compound, the “c: corn, effect on crop grade” value in data set [10] is 3 (Herbicidal ratio of 40% or higher and lower than 70%). In addition, the “R: Veronica persica” value in data set [13] is 3 (Herbicidal ratio of 40% or higher and lower than 70%). Further, the “Herbicidal effect grade, B” value in data set [14] was 3 (Herbicidal ratio of 40% or higher and lower than 70%). Further, in [15], the “herbicidal effect on E, grade 0-5” value was 5 (Herbicidal ratio of 90% or more (almost completely withered)). The “P: Stellaria media” value in [16] is given as 0 (Herbicidal ratio of 5% or lower (almost no effect)).
